Tests used:
[1] = tested on: Magnaporthe grisea; assay: whole plant or invertebrate; type: in vivo; settings: for Test A control value class: class of control value
[2] = tested on: Alternaia brassicicola; assay: Test Example C: Alternaria sooty spot on cabbage; type: in vivo; settings: for Test C control value class: class of control value
Source text: Seeds of a test plant (cabbage variety: Shikidori) were planted and cultivated until the cotyledons extended.
<Control Value> Control value=100{1−(n/3)}

[3] = tested on: Puccinia recondita; assay: Test Example E: Brown rust on wheat; type: in vivo; settings: for Test E control value class: class of control value
[4] = tested on: Phytophthora infestans; assay: whole plant or invertebrate; type: in vivo; settings: for Test F control value class: class of control value
[5] = tested on: Botrytis cinerea; assay: Test Example B: Gray mold on tomato; settings: for Test B control value class: class of control value
[6] = tested on: Plasmopara viticola; assay: Test Example G: Downy mildew on vine; settings: for Test G control value: 7 to 10 days after inoculation; for Test G control value class: Downy mildew on vine (Neomuscat), 2.5 ml/pot, assessed 7 to 10 days after inoculation
[7] = tested on: Colletotrichum orbiculare; assay: Test Example H: Anthracnose on cucumber; settings: for Test H control value: 6 to 10 days after inoculation; for Test H control value class: Anthracnose on cucumber (Sagami Hanjiro), 2.5 ml/pot, assessed 6 to 10 days after inoculation
[8] = tested on: Blumeria graminis f. sp. hordei; assay: Test Example D: Powdery mildew on barley; settings: for Test D control value class: class of control value
[9] = 250 ppm drug solution sprayed on test plant
[10] = 250 ppm drug solution sprayed (2.5 ml/pot), grape Neomuscat
[11] = 250 ppm drug solution sprayed (2.5 ml/pot), cucumber Sagami Hanjiro
[12] = Alternaria sooty spot on cabbage
[13] = Blast on rice, control value class
[14] = Alternaria sooty spot on cabbage, control value class
[15] = Brown rust on wheat, control value class
[16] = Late blight on tomato, control value class
[17] = Gray mold on tomato, control value class
[18] = Downy mildew on vine, 250 ppm spray
[19] = Anthracnose on cucumber, 250 ppm spray
[20] = Powdery mildew on barley, control value class

Compound | Test A control value [1, 9] | Test C control value [2, 9] | Test E control value [3, 9] | Test F control value [4, 9] | Test B control value [5, 9] | Test G control value [6, 10] | Test H control value [7, 11] | Test D control value [8, 9] | Test A control value class ([1]; Blast on rice) | Test C control value class [2, 12] | Test E control value class ([3]; Brown rust on wheat) | Test F control value class ([4]; Late blight on tomato) | Test B control value class ([5]; Gray mold on tomato) | Test G control value class ([6]; 250 ppm spray) | Test H control value class ([7]; 250 ppm spray) | Test D control value class ([8]; Powdery mildew on barley) | also measured
COC(C)(c1cc(Cl)c(=O)n(C)c1-c1c(F)cc(F)cc1F)C(C)C (centres unmarked) [compound 452] | H (more than 50% control value) | H (more than 50% control value) | H (more than 50% control value) | L (50% or less control value) | H (more than 50% control value) | H (more than 50% control value) | H (more than 50% control value) | H (more than 50% control value) |  |  |  |  |  |  |  |  | 
CCCc1cc(I)c(=O)n(CC)c1-c1c(F)cc(F)cc1F [compound 434] | H (more than 50% control value) | H (more than 50% control value) | H (more than 50% control value) | L (50% or less control value) | H (more than 50% control value) | L (50% or less control value) | H (more than 50% control value) | H (more than 50% control value) |  |  |  |  |  |  |  |  | 
CCn1c(-c2ccc(F)cc2Cl)c(C2CCCCC2)cc(Cl)c1=O [compound 181] |  |  |  |  |  |  |  |  | H (more than 50% control value) | H (more than 50% control value) | H (more than 50% control value) | L (50% or less control value) | H (more than 50% control value) | H (more than 50% control value) | H (more than 50% control value) | H (more than 50% control value) | 
CCC(OC)c1cc(Br)c(=O)n(CC)c1-c1c(F)cc(OC)cc1F (centres unmarked) [compound 507] | H (more than 50% control value) | H (more than 50% control value) | H (more than 50% control value) | L (50% or less control value) | H (more than 50% control value) | H (more than 50% control value) | H (more than 50% control value) | H (more than 50% control value) |  |  |  |  |  |  |  |  | 
CCOCc1cc(Cl)c(=O)n(CC)c1-c1c(F)cccc1F [compound 62] |  |  |  |  |  |  |  |  | H (more than 50% control value) | H (more than 50% control value) | H (more than 50% control value) | L (50% or less control value) | H (more than 50% control value) | H (more than 50% control value) | H (more than 50% control value) | H (more than 50% control value) | 
CCn1c(-c2c(F)cc(OC)cc2F)c(C(OC)C(C)C)cc(Br)c1=O (centres unmarked) [compound 503] | H (more than 50% control value) | H (more than 50% control value) | H (more than 50% control value) | L (50% or less control value) | H (more than 50% control value) | H (more than 50% control value) | H (more than 50% control value) | H (more than 50% control value) |  |  |  |  |  |  |  |  | 
CCn1c(-c2ccccc2Cl)c(CC(C)C)cc(Br)c1=O [compound 264] |  |  |  |  |  |  |  |  |  |  |  |  |  |  |  |  | Test A control value [1, 13]: L (50% or less control value); Test C control value [2, 14]: H (more than 50% control value); Test E control value [3, 15]: H (more than 50% control value); Test F control value [4, 16]: L (50% or less control value); Test B control value [5, 17]: H (more than 50% control value); Test G control value [6, 18]: L (50% or less control value); Test H control value [7, 19]: H (more than 50% control value); Test D control value [8, 20]: H (more than 50% control value)
CCn1c(-c2c(F)cccc2F)c(C(C)=O)cc(Cl)c1=O [compound 22] |  |  |  |  |  |  |  |  | L (50% or less control value) | H (more than 50% control value) | H (more than 50% control value) | L (50% or less control value) | H (more than 50% control value) | H (more than 50% control value) | H (more than 50% control value) | L (50% or less control value) | 
CCn1c(-c2ccc(F)cc2)c(CC(C)C)ccc1=O [compound 144] |  |  |  |  |  |  |  |  | L (50% or less control value) | H (more than 50% control value) | H (more than 50% control value) | L (50% or less control value) | L (50% or less control value) | H (more than 50% control value) | L (50% or less control value) | H (more than 50% control value) | 
CCn1c(-c2c(F)cc(F)cc2F)c(CC(C)C)ccc1=O [compound 38] |  |  |  |  |  |  |  |  | H (more than 50% control value) | L (50% or less control value) | H (more than 50% control value) | L (50% or less control value) | H (more than 50% control value) | L (50% or less control value) | L (50% or less control value) | H (more than 50% control value) | 
CCc1cc(Br)c(=O)n(C)c1-c1ccc(OC)cc1Br [compound 358] |  |  |  |  |  |  |  |  |  |  |  |  |  |  |  |  | Test A control value [1, 13]: L (50% or less control value); Test C control value [2, 14]: L (50% or less control value); Test E control value [3, 15]: H (more than 50% control value); Test F control value [4, 16]: L (50% or less control value); Test B control value [5, 17]: H (more than 50% control value); Test G control value [6, 18]: L (50% or less control value); Test H control value [7, 19]: L (50% or less control value); Test D control value [8, 20]: H (more than 50% control value)
CCn1c(-c2c(F)cc(OC)cc2F)c(CN(C)C(C)C)cc(Cl)c1=O [compound 88] |  |  |  |  |  |  |  |  | L (50% or less control value) | H (more than 50% control value) | H (more than 50% control value) | L (50% or less control value) | H (more than 50% control value) | L (50% or less control value) | L (50% or less control value) | H (more than 50% control value) | 
CCOC(C)(c1cc(Cl)c(=O)n(C)c1-c1c(F)cc(F)cc1F)C(C)C (centres unmarked) [compound 451] | H (more than 50% control value) | L (50% or less control value) | L (50% or less control value) | L (50% or less control value) | L (50% or less control value) | L (50% or less control value) | L (50% or less control value) | H (more than 50% control value) |  |  |  |  |  |  |  |  | 
CCCc1cc(Cl)c(=O)n(C)c1-c1ccc(OC)cc1C [compound 433] | L (50% or less control value) | H (more than 50% control value) | H (more than 50% control value) | L (50% or less control value) | H (more than 50% control value) | H (more than 50% control value) | H (more than 50% control value) | H (more than 50% control value) |  |  |  |  |  |  |  |  | 
CCCc1ccc(=O)n(CC(F)F)c1-c1c(F)cc(F)cc1F [compound 470] | L (50% or less control value) | H (more than 50% control value) | L (50% or less control value) | L (50% or less control value) | L (50% or less control value) | L (50% or less control value) | H (more than 50% control value) | L (50% or less control value) |  |  |  |  |  |  |  |  | 
CCC(=O)c1cc(Cl)c(=O)n(CC)c1-c1c(F)cc(F)cc1F [compound 49] |  |  |  |  |  |  |  |  | H (more than 50% control value) | H (more than 50% control value) | H (more than 50% control value) | L (50% or less control value) | H (more than 50% control value) | L (50% or less control value) | H (more than 50% control value) | H (more than 50% control value) | 

Source: patent US11147272B2, “Pyridone compounds and agricultural and horticultural fungicides comprising the same as active ingredients” (MITSUI CHEMICALS AGRO, INC., priority 2017, dated 2021)
